According to article PMC11678778, “Anti-Inflammatory Properties of Novel 1,2-Benzothiazine Derivatives and Their Interaction with Phospholipid Model Membranes” (Membranes, 2024):

Legend:
[1] = DPPH radical scavenging assay; type: physicochemical; settings: 30 min incubation, 37 °C; mean ± SD, n = 3
Experimental: The DPPH assay was conducted to assess the radical scavenging capabilities of the synthesized compounds. Stock solutions of the compounds were formulated in DMSO and subsequently diluted serially to achieve test concentrations ranging from 500 to 10 μM in ethanol. Each sample’s ethanolic DPPH solution was treated with the respective test concentrations and incubated at 37 °C. After a 30 min incubation period, the absorbance was measured at 517 nm, using ethanol as the blank control. Ascorbic acid served as the reference standard, and the IC50 values for the synthesized compounds were determined using the following Equation (2):(2) %DPPH scavenging activity=Abscontrol−Abs sample/Abs (control)×100

[2] = ABTS radical scavenging assay; type: physicochemical; settings: 30 min incubation; mean ± SD, n = 3
Experimental: The activity of ABTS (2,2′-azino-bis(3-ethylbenzothiazoline-6-sulphonic acid)) was assessed to evaluate the radical scavenging potential of the synthesized compounds. The ABTS reagent was generated by combining equal volumes of a 7 mM aqueous solution of ABTS and a 2.45 mM potassium persulfate solution. This mixture was then incubated in the dark at room temperature for 16 h. Following incubation, the solution was diluted with ethanol until the absorbance reached approximately 0.7 ± 0.05 at a wavelength of 734 nm. The stock solutions of the synthesized compounds in DMSO were serially diluted to obtain concentrations ranging from 500 μM to 10 μM in ethanol. The ABTS reagent was then treated with various concentrations of each compound and incubated in the dark at room temperature. After 30 min of incubation, the absorbance was measured at 734 nm, using ethanol as the blank control. Ascorbic acid served as the standard for comparison, and the IC50 values for the synthesized compounds were calculated using the following Equation (3):(3) %ABTS scavenging activity=Abscontrol−Abs sample/Abs (control)×100

COX-2 = biological target: T1, COX-2 (Homo sapiens, UniProt P35354); assay: Cyclooxygenase inhibition assay (colorimetric, peroxidase activity, TMPD oxidation); type: biochemical; settings: for IC50: incubation 2 min, mean ± SD; for Selectivity Ratio: (COX-2/COX-1): ratio of IC50 values
T1 construct: purchased
T1 sequence (P35354 18-604): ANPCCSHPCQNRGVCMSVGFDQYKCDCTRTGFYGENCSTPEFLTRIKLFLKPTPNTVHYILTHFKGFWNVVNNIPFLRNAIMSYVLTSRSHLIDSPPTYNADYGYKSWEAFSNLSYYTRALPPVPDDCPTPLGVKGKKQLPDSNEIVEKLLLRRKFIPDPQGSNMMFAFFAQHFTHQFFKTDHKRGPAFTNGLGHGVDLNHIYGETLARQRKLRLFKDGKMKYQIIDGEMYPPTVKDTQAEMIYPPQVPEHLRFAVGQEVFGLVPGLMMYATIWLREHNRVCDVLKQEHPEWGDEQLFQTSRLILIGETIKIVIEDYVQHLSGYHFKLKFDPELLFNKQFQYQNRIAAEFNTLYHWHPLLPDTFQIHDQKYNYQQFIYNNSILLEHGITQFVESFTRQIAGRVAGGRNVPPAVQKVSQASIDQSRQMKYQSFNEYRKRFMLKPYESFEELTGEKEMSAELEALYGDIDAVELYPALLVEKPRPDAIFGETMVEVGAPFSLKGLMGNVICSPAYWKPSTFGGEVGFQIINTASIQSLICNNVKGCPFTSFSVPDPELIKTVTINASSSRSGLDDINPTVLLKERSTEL
Experimental: (§1) To conduct the cyclooxygenase inhibition assay, we utilized a kit from the manufacturer that contained 150 μL of assay buffer, 10 μL of heme, and 10 μL of either COX-1 or COX-2 enzyme. Each sample was prepared in triplicate, with the addition of 10–500 μM of the test compounds and […] of solvents such as methanol, ethanol, and dimethyl sulfoxide (DMSO). We then added 20 μL of N,N,N cent,N cent-tetramethyl-p-phenylenediamine (TMPD) to each well. Arachidonic acid was introduced to initiate the reaction, which was allowed to proceed for 2 min. Following the incubation period, the extent of TMPD oxidation was measured using the multiscan Go microplate reader at a wavelength of 590 nm (Thermo Fisher Scientific, Waltham, MA, USA).
Cyclooxygenase (COX) peroxidase activity was evaluated using a colorimetric assay. […] The incubation period was maintained at 2 min, following the manufacturer’s guidelines. […] IC50 values were then calculated, and the ratio of IC50 values for both cyclooxygenase isoforms allowed us to assess the selectivity of the tested structures for COX-1 and COX-2.

COX-1 = biological target: T2, COX-1 (Ovis aries, UniProt P05979); assay: as above; type: biochemical; settings: incubation 2 min; mean ± SD
T2 construct: purchased
T2 sequence (P05979 25-600): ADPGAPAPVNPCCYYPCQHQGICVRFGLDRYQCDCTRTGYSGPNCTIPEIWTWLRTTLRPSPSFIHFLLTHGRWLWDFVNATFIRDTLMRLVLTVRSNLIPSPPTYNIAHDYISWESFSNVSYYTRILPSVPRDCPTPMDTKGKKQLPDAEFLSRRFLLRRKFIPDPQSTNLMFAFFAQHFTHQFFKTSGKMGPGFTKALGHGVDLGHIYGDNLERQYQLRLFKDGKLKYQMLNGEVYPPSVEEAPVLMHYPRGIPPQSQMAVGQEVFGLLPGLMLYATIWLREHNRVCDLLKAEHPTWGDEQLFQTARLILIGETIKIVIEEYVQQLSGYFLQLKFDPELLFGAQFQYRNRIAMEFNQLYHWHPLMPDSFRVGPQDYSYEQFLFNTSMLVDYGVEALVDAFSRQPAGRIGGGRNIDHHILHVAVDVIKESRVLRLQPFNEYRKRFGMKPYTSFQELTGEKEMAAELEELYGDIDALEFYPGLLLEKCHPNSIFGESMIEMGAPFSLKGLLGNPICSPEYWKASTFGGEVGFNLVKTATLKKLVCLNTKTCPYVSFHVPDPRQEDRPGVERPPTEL
Experimental: as §1
Cyclooxygenase (COX) peroxidase activity was evaluated using a colorimetric assay. […] The incubation period was maintained at 2 min, following the manufacturer’s guidelines. […] We determined the concentrations of all compounds required for 50% inhibition of COX-1 and COX-2. IC50 values were then calculated, and the ratio of IC50 values for both cyclooxygenase isoforms allowed us to assess the selectivity of the tested structures for COX-1 and COX-2.

[3] = system: NHDF (normal human dermal fibroblast) cells; assay: MTT cytotoxicity assay; type: cell-based; settings: NHDF cell cultures, 24 h incubation, mean ± SD
Experimental: NHDF (normal human dermal fibroblast) cells, sourced from the American Type Culture Collection (ATCC), were maintained in DMEM without phenol red, enhanced with 10% fetal bovine serum (FBS), 2 mM L-glutamine, and 25 μg/mL gentamicin. The cells were incubated under conditions of 5% CO2, at a temperature of 37 °C, and 95% humidity. We monitored the cells bi-weekly, utilizing or subculturing them once they reached over 70% confluence. For all experimental setups, cells were plated at a density of 10,000 cells per well and allowed to recover in a CO2 incubator for 24 h.
The compounds under investigation were dissolved in DMSO to achieve a final concentration of 10 mM and then stored at −20 °C. Lipopolysaccharide (LPS) from Escherichia coli (Sigma-Aldrich, Saint Louis, MO, USA; catalog no. L2630) was dissolved in distilled water to a concentration of […]. The stock solution of LPS was stored at −20 °C for up to 6 months. Final concentrations of LPS used in this study were 50 µg/mL. Prior to use, the solutions were thawed at room temperature. For each compound, 8 different concentrations in the range of 500–10 μM were prepared in the culture medium.
The cytotoxicity of the test compound was assessed using the MTT assay. After cell seeding and overnight incubation, the supernatant was removed, and the compounds were added at concentrations ranging from 500 to 10 µM. Control cells were treated with complete medium only, while cells treated with medium containing DMSO at the highest compound concentration were included as the solvent control. After the incubation period, the supernatant was removed, and 50 µL of a 1.0 mg/mL MTT solution was added to each well and incubated for 2 h at 37 °C. The medium was then removed, and 100 µL of DMSO was added to each well. Finally, absorbance was measured at 570 nm using a Multiskan GO spectrophotometer.
Cell viability was calculated according to Equation (1): (Ai − Am)/(Ac − Am) × 100(Ai − Am)/(Ac − Am) × 100(1) where Ai is the absorbance of the tested concentration, Am is the absorbance of the medium, and Ac is the absorbance of the control. Based on the cytotoxicity test results, the IC50 was calculated using a 4-point lognormal distribution with a Hill coefficient. Experiments were performed in triplicate.

IL-6 = assay: Gene expression by real-time RT-PCR; type: cell-based, human; settings: inflamed NHDF cells, 10 µM, 24 h
Experimental: (§2) The NHDF cells were treated according to the previously outlined procedure. The control and LPS groups were incubated separately in culture dishes containing DMEM, while the test compounds groups were placed in dishes with 10 µM BS23 and BS28, respectively. After a 24 h incubation at 37 °C in a 5% CO2 atmosphere, the NHDF cells were scraped from the bottom of the microplate using a rubber, and then they were centrifuged at 9000× g for 5 min. The pellet was washed with ice-cold PBS twice. RNA was isolated using a Total RNA Mini Plus kit (A&A Biotechnology, Gdańsk, Poland) followed by DNase I (Thermo Fisher Scientific, Waltham, MA, USA) treatment according to the producer’s instructions. cDNA synthesis was performed using a Fast Gene Scriptase II cDNA (Nippon Genetics Europe, Duren, Germany). RT-qPCR analyses were performed using the DyNAmo Flash SYBR Green qPCR Kit (Thermo Fisher Scientific, Waltham, MA, USA) and the CFX Connect Real-Time PCR Detection System (Bio-Rad, Hercules, CA, USA) . Relative gene expression was normalized to the reference gene, β-actin, using the 2^−ΔΔCT method. The primer sequences utilized in this study were as follows: IL-6: F, 5′-[…]-3′; R, 5′-[…]-3′; TNF-α: F, 5′-[…]-3′; R, 5′-[…]-3′; β-actin: F, 5′-[…]-3′; R, 5′-[…]-3′. All experiments were performed at least three times.

TNF-α = assay: Gene expression by real-time RT-PCR; type: cell-based, human; settings: inflamed NHDF cells, 10 µM, 24 h
Experimental: as §2

[4] = system: NHDF cells exposed to LPS; assay: Inflammation model, MTT assay after LPS; type: cell-based, human; settings: LPS 50 µg/mL 24 h, then compound 10, 50, 100 µM 24 h
Experimental: Cells seeded in 96-well plates were treated with 50 ug/mL LPS for 24 h for the MTT assay or 1 h for the DCF-DA assay. […] After this time, MTT and DCF-DA assays were performed according to the procedure described in Wiatrak et al.

Row | SMILES | IC50 [1] [µM] | IC50 [2] [µM] | IC50 (COX-2) [µM] | Selectivity Ratio: (COX-2/COX-1) (COX-2) | IC50 (COX-1) [µM] | IC50 [3] [µM] | expression of IL-6 mRNA compared to the LPS group (IL-6) | expression of TNF-α mRNA compared to the LPS group (TNF-α) | cell viability after LPS then compound [4]
1 | O=C1O[C@H]([C@@H](O)CO)C(O)=C1O [ascorbic acid, reference compound] | 218.3 ± 1.8 | 124 ± 2.3 | – | – | – | – | – | – | –
2 | O=C(C1=C(O)c2ccccc2S(=O)(=O)N1CCCN1CCN(c2ccccn2)CC1)c1ccc(F)cc1 [BS26] | > 500 | 83.7 ± 3.2 | 18.2 ± 4.3 | 0.14 | 129 ± 9.1 | 203 ± 22.9 | – | – | –
3 | O=C(C1=C(O)c2ccccc2S(=O)(=O)N1CCCN1CCN(c2ccccn2)CC1)c1ccc(Br)cc1 [BS29] | > 500 | 53.7 ± 1.7 | 17.8 ± 2.1 | 0.14 | 125 ± 6.7 | 233 ± 11.8 | – | – | –
4 | O=C(C1=C(O)c2ccccc2S(=O)(=O)N1CCCN1CCN(c2ncccn2)CC1)c1ccc(F)cc1 [BS27] | > 500 | 83.3 ± 2.5 | 25.6 ± 2 | 0.22 | 117 ± 4.3 | 191 ± 12.5 | – | – | –
5 | O=C(C1=C(O)c2ccccc2S(=O)(=O)N1CCCN1CCN(c2ncccn2)CC1)c1ccc(Br)cc1 [BS30] | > 500 | 88.3 ± 1.6 | 59.2 ± 3.7 | 0.49 | 122 ± 3.4 | 168 ± 30.4 | – | – | –
6 | O=C(C1=C(O)c2ccccc2S(=O)(=O)N1CC(=O)N1CCN(c2ccccc2)CC1)c1ccc(Br)cc1 [BS28, 3-(4-Bromobenzoyl)-2-[2-(4-phenylpiperazin-1-yl)-2-oxoethyl]-4-hydroxy-2H-1,2-benzothiazine 1,1-dioxide] | > 500 | 88.4 ± 1.9 | 12.5 ± 1.9 | 0.13 | 95.9 ± 5.7 | 180 ± 13.6 | markedly reduced | markedly reduced | –
7 | Cc1ccc(C(=O)C2=C(O)c3ccccc3S(=O)(=O)N2CCCN2CCN(c3ccccn3)CC2)cc1 [BS25] | > 500 | 75.3 ± 1.4 | 62.6 ± 1.7 | 0.48 | 131 ± 7.5 | 200 ± 20.9 | – | – | –
8 | COc1ccc(C(=O)C2=C(O)c3ccccc3S(=O)(=O)N2CCCN2CCN(c3ncccn3)CC2)cc1 [BS24] | > 500 | 63.2 ± 2.8 | 26.3 ± 3.4 | 0.21 | 127 ± 3.6 | 163 ± 15.7 | – | – | –
9 | Cc1cnc(NC(=O)C2=C(O)c3ccccc3S(=O)(=O)N2C)s1 [meloxicam, reference compound] | > 500 | 89.5 ± 1.5 | – | – | – | 174 ± 20.3 | – | – | –
10 | COc1ccc(C(=O)C2=C(O)c3ccccc3S(=O)(=O)N2CCCN2CCN(c3ccccn3)CC2)cc1 [BS23] | > 500 | 54.2 ± 2.2 | 13.2 ± 2.1 | 0.05 | 242 ± 4.2 | 228 ± 28.1 | markedly reduced | markedly reduced | around 70 % of the value for untreated (control) cells
